Source: ChEMBL document CHEMBL1201862, “PubChem BioAssay data set” (2004)
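Five concentrations, 48 hours, 96-well plates. GI50 = concentration required for 50% inhibition of growth.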 Activity calls are given as the source filed them. Rule as the data show it: active = GI50 up to about 1.1 µM and inactive = higher.

Tests used:
Assay in all cases: NCI-60 cell line screen, 48 h
[1] = test system: UO-31
[2] = test system: HCT-15
[3] = test system: HT-29
[4] = test system: T47D
[5] = test system: IGROV-1
[6] = test system: SNB-75
[7] = test system: UACC-257
[8] = test system: A498
[9] = test system: A549
[10] = test system: SF-539
[11] = test system: CAKI-1
[12] = test system: PC-3
[13] = test system: SNB-19
[14] = test system: SK-MEL-5
[15] = test system: SF-268
[16] = test system: SK-MEL-2
[17] = test system: SK-OV-3
[18] = test system: TK-10
[19] = test system: HOP-92
[20] = test system: CCRF-CEM
[21] = test system: SK-MEL-28
[22] = test system: HL-60
[23] = test system: Hs-578T
[24] = test system: OVCAR-4
[25] = test system: NCI-H460
[26] = test system: COLO 205
[27] = test system: U-251
[28] = test system: EKVX
[29] = test system: MDA-N
[30] = test system: NCI-H23
[31] = test system: OVCAR-3
[32] = test system: UACC-62
[33] = test system: OVCAR-5
[34] = test system: ACHN
[35] = test system: MDA-MB-435
[36] = test system: OVCAR-8
[37] = test system: SR
[38] = test system: NCI-H522
[39] = test system: KM12
[40] = test system: MOLT-4
[41] = test system: NCI/ADR-RES
[42] = test system: RPMI-8226
[43] = test system: SW-620
[44] = test system: SN12C
[45] = test system: MDA-MB-231
[46] = test system: NCI-H226
[47] = test system: M14
[48] = test system: SF-295
[49] = test system: HOP-62
[50] = test system: DU-145
[51] = test system: MCF7
[52] = test system: RXF 393
[53] = test system: LOX IMVI
[54] = test system: 786-0
[55] = test system: Malme-3M
[56] = test system: HCC 2998
[57] = test system: K562
[58] = test system: HCT-116

In the case of `C=CC1OC(CCCOC(=O)C(C)(C)C)O[C@@H]1CC` (some centres undefined), the GI50 [1] is reported as > 100 µM (inactive), the GI50 [2] is reported as > 100 µM and the GI50 [3] is reported as > 100 µM (inactive). For the same molecule, the GI50 [4] was > 100 µM (inactive), the GI50 [5] was > 100 µM (inactive) and the GI50 [6] was > 100 µM (inactive). The GI50 [7] was > 100 µM (inactive), the GI50 [8] was > 100 µM (inactive) and the GI50 [9] was > 100 µM (inactive). For the same molecule, the GI50 [10] was > 100 µM (inactive), the GI50 [11] was > 100 µM (inactive) and the GI50 [12] was > 100 µM (inactive). The GI50 [13] was > 100 µM (inactive), the GI50 [14] was > 100 µM (inactive) and the GI50 [15] was > 100 µM (inactive). The GI50 [16] was > 100 µM (inactive), the GI50 [17] was > 100 µM (inactive) and the GI50 [18] was > 100 µM (inactive). For the same molecule, the GI50 [19] was > 100 µM (inactive), the GI50 [20] was > 100 µM (inactive) and the GI50 [21] was > 100 µM (inactive). The GI50 [22] was 7.38 µM (inactive), the GI50 [23] was > 100 µM (inactive) and the GI50 [24] was > 100 µM (inactive). For the same molecule, the GI50 [25] was 37.2 µM (inactive), the GI50 [26] was > 100 µM (inactive) and the GI50 [27] was > 100 µM (inactive). The GI50 [28] was > 100 µM (inactive), the GI50 [29] was > 100 µM (inactive) and the GI50 [30] was > 100 µM (inactive). For the same molecule, the GI50 [31] was > 100 µM (inactive), the GI50 [32] was > 100 µM (inactive) and the GI50 [33] was > 100 µM (inactive). For the same molecule, the GI50 [34] was > 100 µM (inactive), the GI50 [35] was > 100 µM (inactive) and the GI50 [36] was > 100 µM (inactive). For the same molecule, the GI50 [37] was > 100 µM (inactive), the GI50 [38] was > 100 µM (inactive) and the GI50 [39] was > 100 µM (inactive). The GI50 [40] was > 100 µM (inactive), the GI50 [41] was > 100 µM (inactive) and the GI50 [42] was > 100 µM (inactive). The GI50 [43] was > 100 µM (inactive), the GI50 [44] was > 100 µM (inactive) and the GI50 [45] was > 100 µM (inactive). The GI50 [46] was > 100 µM (inactive), the GI50 [47] was > 100 µM (inactive) and the GI50 [48] was > 100 µM (inactive). For the same molecule, the GI50 [49] was > 100 µM (inactive), the GI50 [50] was > 100 µM (inactive) and the GI50 [51] was > 100 µM (inactive).
In the case of `CCOc1ccc(-c2nc(-c3oc4ccccc4c(=O)c3OC(C)=O)cs2)cc1`, the GI50 [2] is reported as 7.13 µM, the GI50 [3] is reported as > 10 µM (inactive) and the GI50 [4] is reported as > 10 µM (inactive). For the same molecule, the GI50 [5] was > 10 µM (inactive), the GI50 [6] was 8.97 µM (inactive) and the GI50 [7] was > 10 µM (inactive). For the same molecule, the GI50 [9] was > 10 µM (inactive), the GI50 [52] was 2.62 µM (inactive) and the GI50 [11] was > 10 µM (inactive). For the same molecule, the GI50 [12] was > 10 µM (inactive), the GI50 [14] was > 10 µM (inactive) and the GI50 [15] was 9.06 µM (inactive). For the same molecule, the GI50 [17] was > 10 µM (inactive), the GI50 [18] was > 10 µM (inactive) and the GI50 [20] was 7.57 µM (inactive). The GI50 [21] was 6.71 µM (inactive), the GI50 [53] was > 10 µM (inactive) and the GI50 [22] was > 10 µM (inactive). For the same molecule, the GI50 [26] was > 10 µM (inactive), the GI50 [54] was > 10 µM (inactive) and the GI50 [28] was > 10 µM (inactive). The GI50 [29] was 6.18 µM (inactive), the GI50 [55] was > 10 µM (inactive) and the GI50 [30] was > 10 µM (inactive). For the same molecule, the GI50 [32] was > 10 µM (inactive), the GI50 [56] was > 10 µM (inactive) and the GI50 [36] was > 10 µM (inactive). For the same molecule, the GI50 [37] was > 10 µM (inactive), the GI50 [39] was > 10 µM (inactive) and the GI50 [40] was > 10 µM (inactive). For the same molecule, the GI50 [57] was 5.5 µM (inactive), the GI50 [42] was > 10 µM (inactive) and the GI50 [43] was > 10 µM (inactive). The GI50 [44] was 9.93 µM (inactive), the GI50 [45] was > 10 µM (inactive) and the GI50 [47] was > 10 µM (inactive). For the same molecule, the GI50 [48] was > 10 µM (inactive), the GI50 [49] was > 10 µM (inactive) and the GI50 [50] was > 10 µM (inactive). For the same molecule, the GI50 [51] was 3.52 µM (inactive).
In the case of `CC(NC(=O)C(N)CC(=O)O)C(=O)OC12CC3CC(CC(C3)C1)C2` (centres undefined), the GI50 [1] is reported as > 100 µM (inactive), the GI50 [2] is reported as > 100 µM and the GI50 [3] is reported as > 100 µM (inactive). The GI50 [5] was > 100 µM (inactive), the GI50 [6] was > 100 µM (inactive) and the GI50 [7] was > 100 µM (inactive). The GI50 [9] was > 100 µM (inactive), the GI50 [52] was > 100 µM (inactive) and the GI50 [11] was > 100 µM (inactive). For the same molecule, the GI50 [12] was > 100 µM (inactive), the GI50 [13] was > 100 µM (inactive) and the GI50 [14] was > 100 µM (inactive). For the same molecule, the GI50 [15] was > 100 µM (inactive), the GI50 [16] was > 100 µM (inactive) and the GI50 [17] was > 100 µM (inactive). For the same molecule, the GI50 [18] was > 100 µM (inactive), the GI50 [19] was > 100 µM (inactive) and the GI50 [20] was > 100 µM (inactive). The GI50 [21] was > 100 µM (inactive), the GI50 [53] was > 100 µM (inactive) and the GI50 [23] was > 100 µM (inactive). For the same molecule, the GI50 [24] was > 100 µM (inactive), the GI50 [25] was > 100 µM (inactive) and the GI50 [58] was > 100 µM (inactive). The GI50 [26] was > 100 µM (inactive), the GI50 [54] was > 100 µM (inactive) and the GI50 [27] was > 100 µM (inactive). The GI50 [28] was > 100 µM (inactive), the GI50 [30] was > 100 µM (inactive) and the GI50 [32] was > 100 µM (inactive). For the same molecule, the GI50 [33] was > 100 µM (inactive), the GI50 [56] was > 100 µM (inactive) and the GI50 [34] was > 100 µM (inactive). For the same molecule, the GI50 [35] was > 100 µM (inactive), the GI50 [36] was > 100 µM (inactive) and the GI50 [37] was > 100 µM (inactive). The GI50 [38] was > 100 µM (inactive), the GI50 [39] was > 100 µM (inactive) and the GI50 [40] was > 100 µM (inactive). For the same molecule, the GI50 [57] was > 100 µM (inactive), the GI50 [41] was > 100 µM (inactive) and the GI50 [42] was > 100 µM (inactive). For the same molecule, the GI50 [43] was > 100 µM (inactive), the GI50 [44] was > 100 µM (inactive) and the GI50 [45] was > 100 µM (inactive). The GI50 [47] was > 100 µM (inactive), the GI50 [50] was 13.4 µM (inactive) and the GI50 [51] was > 100 µM (inactive).
